Source: PMC8119294 (Biochemistry, 2020)

Tests used:
human DOP = conditions: HEK 293 cells, very low potency; cited from earlier work
human MOP = conditions: HEK 293 cells; cited from earlier work
KOP = conditions: read-out: Ki at KOP; CHO cells; cited from earlier work
human KOP = conditions: HEK 293 cells; cited from earlier work
hMOP H321F mutant = hMOP H321F mutant (Homo sapiens, UniProt P35372, H321F); assay: Gαi-mediated cAMP inhibition assay, hMOP H321F mutant; type: cell-based; conditions: for potency reduction at His321F mutant compared to wild-type receptor: EC50 mutant vs wild type; for decrease in efficacy at His321F mutant: Emax mutant vs wild type; for Emax: normalized to Emax of DAMGO
hMOP Asn129K mutant = hMOP Asn129K mutant (Homo sapiens, UniProt P35372, N129K); assay: Gαi-mediated cAMP inhibition assay, hMOP Asn129K mutant; type: cell-based; conditions: for Emax: normalized to Emax of DAMGO
rats = conditions: hot plate assay; cited from earlier work
mice = conditions: radiant heat tail flick assay; cited from earlier work
DOP = conditions: read-out: Ki at DOP; CHO cells; cited from earlier work
[1] = target: human opioid receptor OPRM_HUMAN (hMOP), wild type (Homo sapiens, UniProt P35372); type: cell-based; conditions: for Emax: WT hMOP, normalized to Emax of DAMGO
MOP = conditions: read-out: Ki at MOP; CHO cells; cited from earlier work
opioid receptors = conditions: read-out: Ki for opioid receptors; cited from earlier work
α-adrenergic receptors = conditions: read-out: Ki for α-adrenergic receptors; cited from earlier work
[2] = HEK 293T cells, hMOP H321F mutant, cAMP assay, Gi
[3] = HEK 293T cells, hMOP Asn129K mutant, cAMP assay, Gi
[4] = HEK 293T cells, wild type (WT) hMOP, cAMP assay, Gi

Sequence of hMOP Asn129K mutant (P35372 whole entry N129K): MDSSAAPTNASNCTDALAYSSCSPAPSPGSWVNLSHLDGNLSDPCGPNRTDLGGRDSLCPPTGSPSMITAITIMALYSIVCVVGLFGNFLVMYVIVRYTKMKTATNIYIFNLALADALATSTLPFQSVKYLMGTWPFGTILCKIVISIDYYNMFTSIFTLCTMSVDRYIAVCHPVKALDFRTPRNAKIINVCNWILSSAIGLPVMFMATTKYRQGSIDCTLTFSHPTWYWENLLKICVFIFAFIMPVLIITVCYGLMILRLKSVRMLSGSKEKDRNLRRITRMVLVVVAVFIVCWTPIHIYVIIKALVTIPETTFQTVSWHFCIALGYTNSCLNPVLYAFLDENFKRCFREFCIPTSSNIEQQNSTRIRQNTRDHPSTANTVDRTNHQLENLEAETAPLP
Sequence of human opioid receptor OPRM_HUMAN (hMOP), wild type (P35372 whole entry): as the sequence (P35372 whole entry N129K) above, with K129N counted along it
Sequence of hMOP H321F mutant (P35372 whole entry H321F): as the sequence (P35372 whole entry N129K) above, with K129N, H321F counted along it

Molecule: CC[C@@H]1CN2CC[C@@]3(O)C(=Nc4cccc(OC)c43)[C@@H]2C[C@@H]1/C(=C\OC)C(=O)OC [7OH, 7-hydroxymitragynine]
- functional activity at human DOP (human DOP): competitive antagonists
- functional activity at human MOP (human MOP): partial agonists
- Ki (KOP): 132 ± 7 nM
- functional activity at human KOP (human KOP): competitive antagonists
- potency reduction at His321F mutant compared to wild-type receptor (hMOP H321F mutant; cAMP assay): 2.5 fold
- decrease in efficacy at His321F mutant (hMOP H321F mutant; cAMP assay): > 25%
- Emax (hMOP H321F mutant; hMOP H321F mutant): 60 ± 9%
- potency reduction at Asn129K mutant compared to wild-type receptor (hMOP Asn129K mutant; EC50 mutant vs wild type, cAMP assay): 5 fold
- Emax (hMOP Asn129K mutant; hMOP Asn129K mutant): 92 ± 3.2%
- analgesic effect compared to morphine (rats): significantly more potent than morphine
- analgesic effect compared to morphine (mice): significantly more potent than morphine
- Ki (DOP): 91 ± 8 nM
- Emax [1]: 89±3.8%
- Ki (MOP): 37 ± 4 nM

Molecule: mitragynine [MG]
- functional activity at human DOP (human DOP): competitive antagonists
- functional activity at human MOP (human MOP): partial agonists
- Ki (opioid receptors): 161 to 198 nM
- functional activity at human KOP (human KOP): competitive antagonists
- analgesic effect compared to morphine (rats): significantly lower than morphine
- analgesic effect compared to morphine (mice): significantly lower than morphine
- Ki (MOP): 230 ± 47 nM
- Ki (α-adrenergic receptors): 1.34 to 9.29 µM

Molecule: CC[C@@H]1CN2CC[C@]3(Nc4cccc(OC)c4C3=O)[C@@H]2C[C@@H]1/C(=C\OC)C(=O)OC [MP, mitragynine pseudoindoxyl]
- Ki (KOP): 24 ± 0.9 nM
- potency reduction at His321F mutant compared to wild-type receptor (hMOP H321F mutant; cAMP assay): 32 fold
- decrease in efficacy at His321F mutant (hMOP H321F mutant; cAMP assay): > 25%
- EC50 (hMOP H321F mutant; [2]): 16.9 nM
- pEC50 ± SEM (hMOP H321F mutant; [2]): 7.77 ± 0.27
- Emax (hMOP H321F mutant; hMOP H321F mutant): 58.9 ± 6.7%
- EC50 (hMOP Asn129K mutant; [3]): 0.9 nM
- pEC50 ± SEM (hMOP Asn129K mutant; [3]): 9.04 ± 0.084
- Emax (hMOP Asn129K mutant; hMOP Asn129K mutant): 88 ± 2.97%
- potency relative to morphine (mice): 1.5 fold
- Ki (DOP): 3 ± 1.3 nM
- EC50 [1, 4]: 0.55 nM
- pEC50 ± SEM [1, 4]: 9.28±0.11
- Emax [1]: 81±3.6%
- Ki (MOP): 0.8 ± 0.2 nM
